Like-named read-outs stand apart in the source and are kept apart here. Marks after values point to notes of the source that are not given here.
Tests used:
BrainSpheres = experiment: Cytotoxicity evaluation, resazurin assay (BrainSphere.Cyto); assay type: cell-based, human; settings: for AC50: read-out: ac50 BrainSphere.Cyto; for Top BrainSphere.Cyto: top of winning model, response normalized as percent of vehicle control, negative = decrease; for hitc BrainSphere.Cyto: key: 1 (active); 0 (inactive)
Experimental: For the resazurin assay, BrainSpheres were cultured for 7 weeks in non-treated 6-well plates under gyratory shaking. Subsequently, the cells were exposed in the same manner as the HD-MEA plates. This assay was used to determine cell viability after exposure for 13 days to the different compounds. After exposure, resazurin diluted in PBS was added directly to the 6-well plates to a final concentration of 0.1 mg/ml. The plates were then put in an incubator for 3 h at 37 °C, 5% CO2. Then, 100 µl of the media was collected and transferred in a 96-well plate for fluorescence analysis, which was done at ex:530 nm/em:590 nm in a multi-well fluorometric reader CytoFluor series 4000 (PerSeptive Biosystems, Inc).
Ten metrics were measured to evaluate changes in neural activity in the BrainSphere MEA assay (Table 3). Considering the complexity of the data which includes seven recording days for each single ROI in a well, an area under the curve (AUC) metric was used to reduce activity across time as described in previous publications (Brown et al. [2016]; Frank et al. [2017b]; Shafer et al. [2019]). […] For concentration–response modeling, the mean AUC values across all the BrainSpheres per well (technical replicates) was computed for each endpoint, such that each concentration included biological replicates from at least three separate wells on three separate plates, representing each individual experiment. The mean AUC values were used for concentration–response modeling using the R package tcplfit2 (version 0.1.6) (Sheffield et al. [2022]). Data were normalized as a percent of vehicle control wells by plate using the equation: resp.pc=rval-bval/bval×100 where resp.pc is the percent of control value, rval is the response value, and bval is the baseline value (defined as the mean of the vehicle control and the lowest tested concentration). […] The activity cutoff was defined as 3 times the median absolute deviation (bmad) of baseline values. A curve was defined as ‘active’ if the continuous hit call was ≥ 0.9. See Supplemental Table 1 for the bmad, activity cutoff threshold, SD, and benchmark response for each endpoint in the BrainSphere MEA. Potency was defined as the concentration at 50% maximal activity (AC50 log10 µM).

[1] = tested on: co-culture of iPSC-derived excitatory and inhibitory neurons, and primary human astrocytes; set-up: method as in Bartmann et al. [2023]; settings: ref Bartmann et al. [2023], cited from earlier work
[2] = Homo sapiens, 312 h, resazurin, day 13, Supplement 3 prints it also for curves with hit call 0
[3] = tcplfit2 BMD at benchmark response (1.349*SD of baseline controls)
[4] = resazurin, after 13 days of exposure
[5] = tcplfit2 output ACC, activity cutoff in Supplemental Table 1
[6] = resazurin, day 13, Supplement 3 prints it also for curves with hit call 0

SMILES | AC50 (BrainSpheres; Homo sapiens, 312 h) [µM] | BMD BrainSphere.Cyto (BrainSpheres; human) [µM] | Cytotoxicity hit (BrainSpheres; human) | hitc BrainSphere.Cyto (BrainSpheres; human) | AC50 (BrainSpheres; [2]) [µM] | hitc BrainSphere.Cyto (BrainSpheres; resazurin, day 13, tcplfit2) | BMD BrainSphere.Cyto (BrainSpheres; [3]) [µM] | Cytotoxicity hit (BrainSpheres; [4]) | ACC BrainSphere.Cyto (BrainSpheres; [5]) [µM] | also measured
CC(=O)Nc1ccc(O)cc1 [Acetaminophen] | 45 | 174 | 0 | 0 |  |  |  |  |  | 
CC1(C)[C@H](C(=O)O[C@H](C#N)c2cccc(Oc3ccccc3)c2)[C@@H]1C=C(Br)Br [Deltamethrin] |  |  | 0 |  | 45 | 0 | 102 |  |  | Cytotoxicity / cell viability in the BrainSphere resazurin assay (in words) (BrainSpheres): magnitude of the response was not sufficient to indicate a positive response; EC50 ([1]; read-out: Mean potency in the hNNF): 3.53 µM; EC50 ([1]; read-out: Minimum potency in the hNNF): 2.74 µM
CN(C)C(=O)C(CCN1CCC(O)(c2ccc(Cl)cc2)CC1)(c1ccccc1)c1ccccc1 [Loperamide] | 18 | 8.4 | 1* | 1 |  |  |  |  |  | Cytotoxicity / cell viability in the BrainSphere resazurin assay (in words) (BrainSpheres): positive hit call for cytotoxicity; ACC BrainSphere.Cyto (BrainSpheres; human): 8.7 µM; Cytotoxicity / cell viability in the BrainSphere resazurin assay (in words) (BrainSpheres; human): appeared to demonstrate cytotoxic effects at 30 and 90 µM; AC50 (BrainSpheres): 18.1 µM
CCCC(CCC)C(=O)O [Sodium valproate] |  | 117 | 0 | 0 | 45 |  |  |  |  | 
CC(C)(c1ccc(O)cc1)c1ccc(O)cc1 [Bisphenol A] |  |  |  |  | 6.8 | 0 | 680 | 0 | 11523 | 
Brc1ccc(Oc2ccc(Br)cc2Br)c(Br)c1 [BDE- 47] |  |  |  |  |  | 0 | 79 | 0 | 89 | AC50 (BrainSpheres; [6]): 45 µM; Top BrainSphere.Cyto (BrainSpheres): 4.9
ClC1=C(Cl)[C@]2(Cl)[C@@H]3[C@@H]4C[C@@H]([C@H]5O[C@@H]45)[C@@H]3[C@@]1(Cl)C2(Cl)Cl [Dieldrin] |  |  |  |  | 45 | 0 | 509 | 0 |  | 
[CH3][Hg][Cl] [Methylmercury] |  |  |  |  |  | 0 | 0.15 | 0 | 0.18 | Cytotoxicity / cell viability in the BrainSphere resazurin assay (in words) (BrainSpheres; day 13 of exposure): magnitude of the response was not sufficient to indicate a positive response; AC50 (BrainSpheres; [6]): 0.19 µM; Top BrainSphere.Cyto (BrainSpheres): −10
C/C(=C/C=C/[C@@H](C)C(=O)O)[C@H]1CN[C@H](C(=O)O)[C@H]1CC(=O)O [Domoic acid] | 5 |  |  |  |  | 0 | 4.5 | 0 | 5.4 | Cytotoxicity / cell viability in the BrainSphere resazurin assay (in words) (BrainSpheres; day 13 of exposure): magnitude of the response was not sufficient to indicate a positive response
CC1(C)S[C@@H]2[C@H](NC(=O)[C@H](N)c3ccc(O)cc3)C(=O)N2[C@H]1C(=O)O [Amoxicillin] |  |  | 0 |  | 45 | 0 | 94 |  |  | 
